The source of these data is patent publication US8410144B2, “Substituted indolo-pyridinone compounds” (ArQule, Inc., priority 2009, dated 2013).

In one assay the target is IGF-1R (Homo sapiens, UniProt P08069). Kind of assay: IGFR1 activity assay (ELISA). The assay is classed as biochemical. The following applies: for inhibition at 30 µM: read-out: IGF-1R, PCT INH (30 μM), ELISA. Here is the method: The disclosed compounds were assayed for their ability to inhibit insulin-like growth factor receptor-1 (IGFR1). Nunc Maxisorb plates were coated with streptavidin by overnight incubation with 100 μL per well of 1 μg/ml Streptavidin in DPBS. Prior to the start of the experiment, the plates were washed with TBST (3×200 μL) and blocked for at least 1 hour by adding 150 μL of 5% BSA/TBST. The plates were washed with TBST (3×200 μL/well) and left to dry immediately before the capture step.
The disclosed test articles and controls (Staurosporine) were prepared using the following assay buffer at 3× desired final concentration (50 mM Tris-HCl, 0.02 mg/ml BSA, 10 mM MgCl2, 0.1 mM Na3VO4, 1 mM EGTA, 12.5 μM ATP, 0.01% NP-40, 1 mM DTT in 10% glycerol/water). 20 μL of the test compounds (or control), 20 μL IGF1R (0.33 ng/μL final concentration), and 20 μL of Pyk-2 (0.05 ng/μL final concentration) were rapidly added to the reaction plate. The plate was incubated at room temperature for one hour.
50 μL was transferred from the reaction plate to the streptavidin coated plate. The capture plate was incubated at room temperature for 30 minutes, then washed with TBST three times. 100 μL/well of Cell Signaling anti-phospho tyrosine was added to the capture plate at a dilution of 1:3000 in 2% BSA/TBST. The plate was incubated for one hour at room temperature then washed 6× with TBST. 100 μL/well of alkaline phosphatase tagged goat anti mouse antibody was added to the capture plate at a dilution of 1:4000 in 2% BSA/TBST. The plate was incubated for one hour at room temperature then washed with TBST six times.
The fluorescent readout is initiated by the addition of 100 μL/well of Attophos reagent (6 mg/10 mL). The reading is done on the Perkin Elmer Envision system.
A general note: An ELISA detects its analyte on a solid surface through an enzyme-linked reagent.

For the next assay, the system named is KATO III. Kind of assay: MTS assay, KATO III cells. It is filed as cell-based. The settings on record: 72 hours; for inhibition at 10 µM: Homo sapiens, read-out: KATO III, MTS cell kill % inhibition. Here is the method: (§1) Cells were maintained at 37° C., 5% CO2 in DMEM media supplemented with 1% fetal bovine serum, penicillin/streptomycin and fungizone (Invitrogen). Cells were seeded into 96-well tissue culture plates at 3000 per well and cultured at 37° C. for 18 hours. Test compounds were dissolved and diluted to 300× in DMSO then diluted 1:40 in DMEM. Cells were incubated with test compounds for 72 hours followed by incubation with tetrazolium compound (3-(4,5-dimethylthiazol-2-yl)-5-(3-carboxymethoxyphenyl)-2-(4-sulfophenyl)-2H-tetrazolium, inner salt; MTS) and the electron coupling reagent, phenazine methosulfate (PMS) for 4 hours. […] The ability of compounds to inhibit cell growth in this assay is correlated with the reduction of dehydrogenase enzyme activity found in metabolically active cells. The measurement of the absorbance of the formazan was assessed using an ENVISION™ (Perkin Elmer) microplate reader at 492 nm. The calculated IC50 value is the concentration of the test compound that causes a 50% decrease in the absorbance.
(Formazan colour is commonly taken as a measure of viable cells.)

The next assay deals with DLD-1. Description: MTS assay, DLD-1 cells. The assay is classed as cell-based. The following applies: 72 hours; for inhibition at 10 µM: Homo sapiens, read-out: DLD-1, MTS cell kill % inhibition. Here is the method:
as §1

The subject of another assay is MDA-MB-231. Description: MTS assay, MDA-MB-231 cells. The assay is classed as cell-based. The following applies: 72 hours; for inhibition at 10 µM: Homo sapiens, read-out: MDA-MB-231, MTS cell kill % inhibition. As to the method: as §1
The subject of a further assay is NCI-H1299. Description: MTS assay, NCI-H1299 cells. The following applies: 72 hours; for inhibition at 10 µM: Homo sapiens, read-out: NCI-H1299, MTS cell kill % inhibition. The assay is classed as cell-based. As to the method: as §1

Sequence of IGF-1R (P08069 31-1367): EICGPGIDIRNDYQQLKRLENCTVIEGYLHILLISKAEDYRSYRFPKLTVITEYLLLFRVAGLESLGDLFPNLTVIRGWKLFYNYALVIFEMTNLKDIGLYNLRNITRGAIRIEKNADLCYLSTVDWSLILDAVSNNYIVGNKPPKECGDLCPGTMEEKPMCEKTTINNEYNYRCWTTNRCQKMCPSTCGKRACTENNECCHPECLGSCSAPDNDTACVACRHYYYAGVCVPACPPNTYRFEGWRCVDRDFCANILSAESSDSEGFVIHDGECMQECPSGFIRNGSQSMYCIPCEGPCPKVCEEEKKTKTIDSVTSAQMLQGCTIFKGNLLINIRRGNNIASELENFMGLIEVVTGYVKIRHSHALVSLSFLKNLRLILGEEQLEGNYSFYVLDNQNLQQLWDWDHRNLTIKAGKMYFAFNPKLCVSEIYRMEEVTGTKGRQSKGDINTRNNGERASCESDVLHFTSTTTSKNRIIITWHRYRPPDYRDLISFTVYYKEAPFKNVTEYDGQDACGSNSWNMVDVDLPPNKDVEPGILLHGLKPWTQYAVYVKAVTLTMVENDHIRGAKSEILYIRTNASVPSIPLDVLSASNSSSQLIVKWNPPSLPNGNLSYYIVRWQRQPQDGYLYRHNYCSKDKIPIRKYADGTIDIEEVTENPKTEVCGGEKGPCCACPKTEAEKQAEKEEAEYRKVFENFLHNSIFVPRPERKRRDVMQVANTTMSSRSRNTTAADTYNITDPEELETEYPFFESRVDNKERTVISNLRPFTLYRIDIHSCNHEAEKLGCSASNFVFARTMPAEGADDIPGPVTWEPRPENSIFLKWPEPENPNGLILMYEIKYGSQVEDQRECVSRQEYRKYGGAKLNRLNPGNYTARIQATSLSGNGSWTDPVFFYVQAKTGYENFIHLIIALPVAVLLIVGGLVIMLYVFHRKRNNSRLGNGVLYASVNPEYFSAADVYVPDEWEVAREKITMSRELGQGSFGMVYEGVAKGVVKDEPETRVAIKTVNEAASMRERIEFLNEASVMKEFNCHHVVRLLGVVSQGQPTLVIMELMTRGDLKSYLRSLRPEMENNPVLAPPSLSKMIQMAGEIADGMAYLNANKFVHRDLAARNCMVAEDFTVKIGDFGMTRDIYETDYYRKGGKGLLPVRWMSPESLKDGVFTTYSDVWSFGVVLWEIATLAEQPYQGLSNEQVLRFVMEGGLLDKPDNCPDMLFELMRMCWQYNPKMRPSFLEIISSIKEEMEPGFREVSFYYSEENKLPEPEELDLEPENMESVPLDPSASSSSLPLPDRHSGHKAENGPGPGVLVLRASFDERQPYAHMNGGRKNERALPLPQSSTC

With `O=C(NCCc1ccccn1)c1ccc2[nH]c(-c3ccc[nH]c3=O)c(-c3ccc(-c4ccccc4)cc3)c2c1` [Compound 39, 3-biphenyl-4-yl-2-(2-oxo-1,2-dihydropyridin-3-yl)-N-(2-pyridin-2-ylethyl)-1H-indole-5-carboxamide], the inhibition at 30 µM on IGF-1R was in the range of 50 to 79%. Moreover, the inhibition at 10 µM in the assay with KATO III, in the assay on DLD-1, in the assay with MDA-MB-231 and in the assay on NCI-H1299 was 80 to 100% throughout.

Take `CN(CCc1ccccc1)C(=O)c1ccc2[nH]c(-c3ccc[nH]c3=O)c(-c3ccccc3)c2c1` [Compound 23, N-methyl-2-(2-oxo-1,2-dihydropyridin-3-yl)-3-phenyl-N-(2-phenylethyl)-1H-indole-5-carboxamide]: the inhibition at 30 µM at IGF-1R was 80 to 100%. The inhibition at 10 µM with KATO III, with DLD-1, in the assay on MDA-MB-231 and with NCI-H1299 was 80 to 100% each time.

With `O=C(NCCCN1CCOCC1)c1ccc2[nH]c(-c3ccc[nH]c3=O)c(-c3csc4ccccc34)c2c1` [Compound 74, 3-(1-benzothien3-yl)-N-(3-morpholin-4-ylpropyl)-2-(2-oxo-1,2-dihydropyridin-3-yl)-1H-indole-5-carboxamide], the inhibition at 30 µM at IGF-1R was 80 to 100%. Also, the inhibition at 10 µM in the assay on KATO III is 80 to 100%; with DLD-1 it was 50 to 79%; in the assay on MDA-MB-231, 50 to 79%; in the assay on NCI-H1299, 50 to 79%.

Regarding `O=C(NC1CCC1)c1ccc2[nH]c(-c3ccc[nH]c3=O)c(-c3ccccc3)c2c1` [Compound 26, N-cyclobutyl-2-(2-oxo-1,2-dihydropyridin-3-yl)-3-phenyl-1H-indole-5-carboxamide], the inhibition at 30 µM at IGF-1R was 80 to 100%. Moreover, the inhibition at 10 µM with KATO III, in the assay with DLD-1, in the assay on MDA-MB-231 and with NCI-H1299 was 80 to 100% in each case.

In the case of “3-[3-biphenyl-4-yl-5-({[3- (dimethylamino)propyl](methyl) amino}methyl)-1H-indol-2- yl]pyridin-2(1H)-one [Compound 53]”, the “IGF-1R, PCT INH (30 μM), ELISA” value at IGF-1R was “C (C = <50% inhibition)”. Moreover, the “KATO III, MTS cell kill % inhibition” value in the assay on KATO III (10 μM) was “A (A = 80-100% inhibition)”. In addition, the “DLD-1, MTS cell kill % inhibition” value in the assay on DLD-1 (10 μM) was “A (A = 80-100% inhibition)”. The “MDA-MB-231, MTS cell kill % inhibition” value with MDA-MB-231 (10 μM) was “A (A = 80-100% inhibition)”. Besides, the “NCI-H1299, MTS cell kill % inhibition” value with NCI-H1299 (10 μM) was “A (A = 80-100% inhibition)”.

Take `COc1ccc(-c2c(-c3ccc[nH]c3=O)[nH]c3ccc(C(=O)NCCCN4CCOCC4)cc23)cc1` [Compound 80, 3-(4-methoxyphenyl)-N-(3-morpholin-4-ylpropyl)-2-(2-oxo-1,2-dihydropyridin-3-yl)-1H-indole-5-carboxamide]: the inhibition at 30 µM at IGF-1R lay in the range of 80 to 100%. Further, the inhibition at 10 µM in the assay with KATO III is 80 to 100%; in the assay with DLD-1, 50 to 79%; with MDA-MB-231 it was 50 to 79%; with NCI-H1299, 50 to 79%.

In the case of `O=C(NCCCN1CCOCC1)c1ccc2[nH]c(-c3ccc[nH]c3=O)c(-c3ccc4ncccc4c3)c2c1` [Compound 83, N-(3-morpholin-4-ylpropyl)-2-(2-oxo-1,2-dihydropyridin-3-yl)-3-quinolin-6-yl-1H-indole-5-carboxamide], the inhibition at 30 µM on IGF-1R lay in the range of 80 to 100%. The inhibition at 10 µM in the assay on KATO III, with DLD-1, in the assay on MDA-MB-231 and in the assay on NCI-H1299 was 80 to 100% throughout.

Consider `COc1ccc(CNC(=O)c2ccc3[nH]c(-c4ccc[nH]c4=O)c(-c4ccccc4)c3c2)cc1OC` [Compound 32, N-(3,4-dimethoxybenzyl)-2-(2-oxo-1,2-dihydropyridin-3-yl)-3-phenyl-1H-indole-5-carboxamide], for which the inhibition at 30 µM on IGF-1R lay within 80 to 100%. For the same molecule, the inhibition at 10 µM in the assay on KATO III is 80 to 100%; in the assay on DLD-1, 50 to 79%; in the assay with MDA-MB-231, under 50%; in the assay on NCI-H1299, 80 to 100%.

Take `Cc1ccccc1-c1c(-c2ccc[nH]c2=O)[nH]c2ccc(C(=O)NCCCN3CCOCC3)cc12` [Compound 58, 3-(2-methylphenyl)-N-(3-morpholin-4-ylpropyl)-2-(2-oxo-1,2-dihydropyridin-3-yl)-1H-indole-5-carboxamide]: the inhibition at 30 µM on IGF-1R was in the range of 80 to 100%. Further, the inhibition at 10 µM with KATO III, in the assay on DLD-1, in the assay with MDA-MB-231 and in the assay on NCI-H1299 was under 50% in each case.

As to `O=C(NCCCN1CCOCC1)c1ccc2[nH]c(-c3ccc[nH]c3=O)c(-c3cc(F)ccc3F)c2c1` [Compound 60, 3-(2,5-difluorophenyl)-N-(3-morpholin-4-ylpropyl)-2-(2-oxo-1,2-dihydropyridin-3-yl)-1H-indole-5-carboxamide], the inhibition at 30 µM at IGF-1R was 80 to 100%. In addition, the inhibition at 10 µM fell in the range of 80 to 100% with KATO III, 50 to 79% in the assay on DLD-1, 50 to 79% with MDA-MB-231 and 80 to 100% in the assay with NCI-H1299.

Take `O=C(NCCCN1CCOCC1)c1ccc2[nH]c(-c3ccc[nH]c3=O)c(-c3ccc(F)c(Cl)c3)c2c1` [Compound 76, 3-(3-chloro-4-fluorophenyl)-N-(3-morpholin-4-ylpropyl)-2-(2-oxo-1,2-dihydropyridin-3-yl)-1H-indole-5-carboxamide]: the inhibition at 30 µM at IGF-1R was under 50%. Also, the inhibition at 10 µM with KATO III, in the assay on DLD-1, in the assay with MDA-MB-231 and in the assay with NCI-H1299 was 80 to 100% throughout.

As for `O=C(c1ccc2[nH]c(-c3ccc[nH]c3=O)c(-c3ccc(-c4ccccc4)cc3)c2c1)N1CCN(Cc2ccccn2)CC1` [Compound 41, 3-(3-biphenyl-4-yl-5-{[4-(pyridin-2-ylmethyl)piperazin-1-yl]carbonyl}-1H-indol-2-yl)pyridin-2(1H)-one], the inhibition at 30 µM at IGF-1R was in the range of 50 to 79%. The inhibition at 10 µM was in the range of 80 to 100% with KATO III, 80 to 100% in the assay on DLD-1, 50 to 79% with MDA-MB-231 and 80 to 100% in the assay on NCI-H1299.

With `O=C(c1ccc2[nH]c(-c3ccc[nH]c3=O)c(-c3ccc(-c4ccccc4)cc3)c2c1)N1CCN(CCN2CCOCC2)CC1` [Compound 37, 3-(3-biphenyl-4-yl-5-{[4-(2-morpholin-4-ylethyl)piperazin-1-yl]carbonyl]-1H-indol-2-yl)pyridin-2(1H)-one], the inhibition at 30 µM at IGF-1R is 80 to 100%. Also, the inhibition at 10 µM in the assay with KATO III, in the assay with DLD-1, in the assay with MDA-MB-231 and with NCI-H1299 was 80 to 100% in each case.

Regarding `O=C(NCCCN1CCOCC1)c1ccc2[nH]c(-c3ccc[nH]c3=O)c(-c3cccc(F)c3)c2c1` [Compound 82, 3-(3-fluorophenyl)-N-(3-morpholin-4-ylpropyl)-2-(2-oxo-1,2-dihydropyridin-3-yl)-1H-indole-5-carboxamide], the inhibition at 30 µM on IGF-1R is 80 to 100%. For the same molecule, the inhibition at 10 µM with KATO III is 80 to 100%; in the assay on DLD-1, 50 to 79%; in the assay on MDA-MB-231 it was under 50%; in the assay with NCI-H1299 it was 80 to 100%.
